Values belong to the molecule of their own block, whether it stands above or below them. Activity calls are given as the source filed them.
Key:
[1] = target: T1, Short transient receptor potential channel 4 (Mus musculus, UniProt Q9QUQ5); assay: mouse TRPC4 channel activators, dose response, cell-based, HEK293 TRPC4/mu-opioid, Fluo-4 calcium (AID 434937); type: functional
T1 sequence (Q9QUQ5 whole entry): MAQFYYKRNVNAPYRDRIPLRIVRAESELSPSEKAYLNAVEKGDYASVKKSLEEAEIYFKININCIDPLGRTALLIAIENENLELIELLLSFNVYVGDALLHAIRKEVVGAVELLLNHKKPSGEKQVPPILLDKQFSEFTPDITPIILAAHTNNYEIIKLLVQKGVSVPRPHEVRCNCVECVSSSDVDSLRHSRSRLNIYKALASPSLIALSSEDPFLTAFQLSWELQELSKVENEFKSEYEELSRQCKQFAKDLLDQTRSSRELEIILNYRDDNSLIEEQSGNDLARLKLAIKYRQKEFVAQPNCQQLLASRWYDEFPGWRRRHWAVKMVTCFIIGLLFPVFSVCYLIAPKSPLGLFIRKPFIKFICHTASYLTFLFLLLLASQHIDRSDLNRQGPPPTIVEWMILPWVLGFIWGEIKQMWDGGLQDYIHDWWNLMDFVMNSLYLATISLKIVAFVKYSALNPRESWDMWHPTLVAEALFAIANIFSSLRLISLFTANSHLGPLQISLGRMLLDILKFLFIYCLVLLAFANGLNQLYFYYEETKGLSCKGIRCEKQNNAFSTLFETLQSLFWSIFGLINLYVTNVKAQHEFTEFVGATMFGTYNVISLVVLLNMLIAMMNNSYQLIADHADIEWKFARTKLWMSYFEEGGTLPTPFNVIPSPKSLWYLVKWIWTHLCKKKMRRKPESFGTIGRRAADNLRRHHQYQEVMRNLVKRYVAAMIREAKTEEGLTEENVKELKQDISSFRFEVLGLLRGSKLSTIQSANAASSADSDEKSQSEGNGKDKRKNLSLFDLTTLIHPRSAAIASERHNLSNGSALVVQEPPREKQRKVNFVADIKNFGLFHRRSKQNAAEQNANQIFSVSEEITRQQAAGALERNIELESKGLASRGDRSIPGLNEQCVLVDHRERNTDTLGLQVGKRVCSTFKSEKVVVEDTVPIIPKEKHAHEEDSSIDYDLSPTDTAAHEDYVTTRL

[2] = target: Delta-type opioid receptor (Homo sapiens, UniProt P41143); assay: Counterscreen for agonists of heterodimerization of the mu 1 (OPRM1) and delta 1 (OPRD1) opioid receptors: Luminescence-based cell-based high throughput dose response assay to identify agonists of OPRD1 homodimerization. [Related pubchem assays (depositor defined):AID504326, AID504355, AID504692, AID504904, AID504905]; type: functional
Delta-type opioid receptor, sequence (P41143 whole entry): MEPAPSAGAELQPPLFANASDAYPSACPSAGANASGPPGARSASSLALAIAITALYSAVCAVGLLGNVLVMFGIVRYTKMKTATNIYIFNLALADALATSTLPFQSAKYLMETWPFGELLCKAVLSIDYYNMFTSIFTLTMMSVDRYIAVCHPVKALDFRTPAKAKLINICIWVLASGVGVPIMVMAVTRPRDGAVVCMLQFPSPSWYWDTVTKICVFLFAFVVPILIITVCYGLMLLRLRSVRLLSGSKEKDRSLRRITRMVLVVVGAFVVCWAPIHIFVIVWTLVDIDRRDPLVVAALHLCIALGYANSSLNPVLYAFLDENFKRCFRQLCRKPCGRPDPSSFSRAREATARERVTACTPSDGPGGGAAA

[3] = target: Mu-type opioid receptor (Homo sapiens, UniProt P35372); assay: Counterscreen for agonists of heterodimerization of the mu 1 (OPRM1) and delta 1 (OPRD1) opioid receptors: Luminescence-based cell-based high throughput dose response assay to identify agonists of OPRM1 homodimerization.; type: functional;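 further: U2OS cells expressing OPRM1 and beta-arrestin as split beta-galactosidase partners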
Mu-type opioid receptor, sequence (P35372 whole entry): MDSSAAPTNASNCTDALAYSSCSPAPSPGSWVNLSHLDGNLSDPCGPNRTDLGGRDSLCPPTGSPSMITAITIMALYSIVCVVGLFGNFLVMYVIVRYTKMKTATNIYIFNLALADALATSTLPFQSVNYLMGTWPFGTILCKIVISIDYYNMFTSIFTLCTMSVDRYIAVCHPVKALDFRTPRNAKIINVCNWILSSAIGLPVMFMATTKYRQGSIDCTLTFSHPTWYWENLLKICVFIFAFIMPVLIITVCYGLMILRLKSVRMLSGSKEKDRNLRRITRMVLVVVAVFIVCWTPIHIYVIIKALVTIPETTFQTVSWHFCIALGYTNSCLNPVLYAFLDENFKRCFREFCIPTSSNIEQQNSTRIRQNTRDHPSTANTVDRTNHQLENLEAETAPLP

[4] = target: Opioid receptors; mu & delta (Homo sapiens, UniProt P41143+P35372); assay: agonists of MOR-DOR heterodimerization, dose response, cell-based, luminescence (AID 588407); type: functional
[5] = target: 5-hydroxytryptamine receptor 5A (Homo sapiens, UniProt P47898); assay: Counterscreen for agonists of OPRM1-OPRD1 heterodimerization: luminescence-based cell-based high throughput dose response assay to identify agonists of 5-hydroxytryptamine (serotonin) 5A receptor (HTR5A). [Related pubchem assays (depositor defined):AID504326, AID504355, AID504692, AID504904, AID504905]; type: functional
5-hydroxytryptamine receptor 5A, sequence (P47898 whole entry): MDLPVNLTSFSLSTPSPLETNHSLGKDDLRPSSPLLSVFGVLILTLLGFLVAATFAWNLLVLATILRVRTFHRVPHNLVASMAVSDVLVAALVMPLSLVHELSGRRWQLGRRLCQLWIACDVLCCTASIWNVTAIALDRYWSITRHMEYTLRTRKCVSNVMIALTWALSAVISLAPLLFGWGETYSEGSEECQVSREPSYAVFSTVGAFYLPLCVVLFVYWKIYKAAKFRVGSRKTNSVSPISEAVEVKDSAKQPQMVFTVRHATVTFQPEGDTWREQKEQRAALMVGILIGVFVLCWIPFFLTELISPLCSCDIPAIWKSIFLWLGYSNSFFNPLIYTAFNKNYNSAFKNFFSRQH

[6] = NIH-3T3 fibroblast cytotoxicity, dose response, cytotoxicity control, cell-based, fluorescence, Alamar Blue, secondary assay (AID 2327); type: functional;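 further: NIH-3T3 mouse fibroblasts cultured with fluconazole at 8 µg/mL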
[7] = C. albicans growth with fluconazole, confirmation, fluorescence, retest (AID 2467); type: functional, cell-based
[8] = target: T2, Serine/threonine-protein phosphatase (Candida dubliniensis (strain CD36 / CBS 7987 / NCPF 3949 / NRRLY-17841) (Yeast), UniProt B9W6M3); assay: calcineurin pathway inhibitors in yeast reporter, dose response, S. cerevisiae, CDRE-lacZ, luminescence, secondary (AID 2388); type: functional, cell-based;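 further: yeast reporter cells carrying a calcineurin-responsive lacZ construct stimulated with calcium chloride; luminescent beta-galactosidase reporter signal in whole cells rather than isolated phosphatase activity; potency for inhibition where a drop in reporter signal means calcineurin blockade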
T2 sequence (B9W6M3 whole entry): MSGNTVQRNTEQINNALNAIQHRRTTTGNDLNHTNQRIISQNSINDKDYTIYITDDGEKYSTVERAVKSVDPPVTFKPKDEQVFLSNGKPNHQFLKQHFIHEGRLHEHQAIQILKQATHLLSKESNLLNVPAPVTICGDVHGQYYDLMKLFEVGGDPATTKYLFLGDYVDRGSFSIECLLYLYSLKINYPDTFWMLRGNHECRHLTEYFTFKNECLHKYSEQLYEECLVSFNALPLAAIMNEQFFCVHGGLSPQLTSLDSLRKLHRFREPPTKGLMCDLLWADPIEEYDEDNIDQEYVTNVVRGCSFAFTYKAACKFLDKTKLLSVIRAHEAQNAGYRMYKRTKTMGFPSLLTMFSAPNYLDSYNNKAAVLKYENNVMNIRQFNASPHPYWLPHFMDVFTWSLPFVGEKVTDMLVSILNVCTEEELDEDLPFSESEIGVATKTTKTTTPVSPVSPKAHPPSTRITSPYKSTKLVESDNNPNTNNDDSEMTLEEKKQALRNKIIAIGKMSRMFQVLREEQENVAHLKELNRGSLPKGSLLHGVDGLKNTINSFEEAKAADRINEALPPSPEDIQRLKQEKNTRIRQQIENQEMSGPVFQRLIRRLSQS

[9] = Luminescence Cell-Based Dose Retest to Confirm Inhibitors of Cancer Stem Cells. [Related pubchem assays (depositor defined):AID2717, AID2721]; type: functional; conditions: Homo sapiens
[10] = target: Heat shock protein HSP 90-alpha (Homo sapiens, UniProt P07900); type: functional, organism-based
[11] = target: T2, Serine/threonine-protein phosphatase; assay: Fluorescence Cell-Based Secondary Assay to Identify Inhibitors of Calcineurin. [Related pubchem assays (depositor defined):AID1979, AID2007]; type: functional
[12] = Luminescence Cell-Based/Microorganism Confirmation at Dose of Inhibitors of Trypanosoma cruzi Infection. [Related pubchem assays: 1885, 1968 ]; type: functional
[13] = inhibitors of intracellular T. cruzi replication, confirmation, NIH3T3 host cells, beta-gal luminescence (AID 2044); type: functional, cell-based;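 further: intracellular parasites grown in NIH/3T3 mouse fibroblasts as host cells; luminescent beta-galactosidase reporter signal from transgenic T. cruzi replicating inside host cells; inhibitors lower the luminescence signal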
[14] = Luminescence Cell-Based Secondary HTS screen to identify cytotoxic compounds of NIH3T3 cells. [Related pubchem assays: 1885, 1968 ]; type: functional
[15] = cytotoxicity toward NIH3T3 fibroblasts, dose response, counter-screen, cell-based, ATP luminescence, mouse fibroblasts (AID 2010); type: functional;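 further: cells exposed to compound for about 90 hours before reading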
[16] = inhibitors of Trypanosoma cruzi host-cell infection, confirmation, beta-gal luminescence, NIH3T3 host cells (AID 2630); type: functional, cell-based; conditions: Mus musculus
[17] = cells
[18] = target: Dual specificity tyrosine-phosphorylation-regulated kinase 1A (Rattus norvegicus, UniProt Q63470); type: biochemical, Homo sapiens
[19] = target: T3, Rac GTPase-activating protein 1 (Homo sapiens, UniProt Q9H0H5); assay: MgcRacGAP GTPase-activating activity inhibitors, confirmation, biochemical, ADP Hunter fluorescence, primary and confirmatory (AID 624330); type: functional
T3 sequence (Q9H0H5 whole entry): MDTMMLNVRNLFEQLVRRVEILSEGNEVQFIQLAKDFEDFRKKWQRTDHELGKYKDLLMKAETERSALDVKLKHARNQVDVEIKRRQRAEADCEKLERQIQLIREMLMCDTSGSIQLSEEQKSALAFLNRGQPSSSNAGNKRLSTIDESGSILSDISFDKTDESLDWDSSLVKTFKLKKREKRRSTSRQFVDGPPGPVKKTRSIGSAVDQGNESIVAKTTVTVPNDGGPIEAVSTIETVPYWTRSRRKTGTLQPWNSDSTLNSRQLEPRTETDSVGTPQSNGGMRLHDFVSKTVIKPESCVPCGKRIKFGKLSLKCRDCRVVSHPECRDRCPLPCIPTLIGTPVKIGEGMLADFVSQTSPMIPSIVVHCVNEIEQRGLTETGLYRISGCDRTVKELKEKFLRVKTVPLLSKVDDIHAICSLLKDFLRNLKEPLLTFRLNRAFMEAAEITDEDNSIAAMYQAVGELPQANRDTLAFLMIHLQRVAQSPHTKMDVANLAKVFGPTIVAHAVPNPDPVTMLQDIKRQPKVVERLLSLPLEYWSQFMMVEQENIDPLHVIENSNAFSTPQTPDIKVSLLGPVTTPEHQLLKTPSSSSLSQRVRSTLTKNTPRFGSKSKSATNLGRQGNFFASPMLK

[20] = system: Streptococcus sp. 'group A'; assay: growth inhibition of control SK(-) GAS strain, dose response, counter-screen for streptokinase expression inhibitor project, luminescence, kanamycin, BacTiterGlo, confirmation (AID 1900); type: functional, organism-based
[21] = system: Streptococcus; assay: Group A Streptococcus viability loss, dose response, counter-screen for streptokinase expression inhibitor project, luminescence, BacTiterGlo (AID 1915); type: functional, organism-based;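 further: potency for reduction of bacterial viability or growth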
[22] = cytotoxicity in HMLE control line with eGFP shRNA, dose response, counter-screen for HMLE_sh_ECad selective toxicity project, cell-based, HMLE_sh_eGFP, luminescence (AID 463074); type: functional, Homo sapiens;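 further: HMLE human mammary epithelial cells expressing control shRNA against eGFP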
[23] = target: Dual specificity protein kinase CLK1 (Homo sapiens, UniProt P49759); assay: CLK1 kinase inhibitors, off-target check, dose response, selectivity assay for Dyrk1A inhibitor project, biochemical, cherry-picked samples (AID 588811)
Dual specificity protein kinase CLK1, sequence (P49759 whole entry): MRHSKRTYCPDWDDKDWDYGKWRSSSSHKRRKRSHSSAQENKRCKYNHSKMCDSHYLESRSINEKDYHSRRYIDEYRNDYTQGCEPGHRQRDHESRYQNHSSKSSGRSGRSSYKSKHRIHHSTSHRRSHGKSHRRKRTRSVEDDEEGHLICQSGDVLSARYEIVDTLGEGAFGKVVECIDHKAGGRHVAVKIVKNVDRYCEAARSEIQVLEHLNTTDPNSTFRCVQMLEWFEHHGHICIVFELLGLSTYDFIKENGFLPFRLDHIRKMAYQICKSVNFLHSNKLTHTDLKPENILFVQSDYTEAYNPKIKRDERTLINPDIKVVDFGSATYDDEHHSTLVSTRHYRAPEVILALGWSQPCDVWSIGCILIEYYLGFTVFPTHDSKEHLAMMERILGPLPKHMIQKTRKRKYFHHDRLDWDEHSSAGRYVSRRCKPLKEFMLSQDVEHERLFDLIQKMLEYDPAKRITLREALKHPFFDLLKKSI

SMILES: COc1ccc(C2Nc3ccccc3C(=O)N2Cc2ccco2)cc1COc1ccc(NC(C)=O)cc1 (centres undefined)
EC50 [1]: 0.149 µM (active)
EC50 [2]: 0.0173 µM (active)
EC50 [3]: > 92.5 µM (inactive)
EC50 [4]: > 0.01406 µM
EC50 [5]: > 92.5 µM (inactive)

SMILES: O=C(NNC1=C(C(=O)C(F)(F)F)CCC1)c1ccc(Cl)cc1
EC50 [6]: 23.5 µM (active)
EC50 [7]: 0.126 µM (active)
EC50 [8]: > 180 µM (inactive)
AC50 [9]: 2.75 µM (active)
AC50 [10]: 3.37 µM (active)
EC50 [11]: 13.5 µM (active)

SMILES: CCn1ncc(CN2CCCC(C(=O)c3cccc(OC(C)C)c3)C2)c1C (centres undefined)
EC50 [12]: 0.062 µM (active)
EC50 [13]: < 0.1 µM (active)
EC50 [14]: > 195 µM (not active)
EC50 [15]: > 60 µM (inconclusive)
EC50 [16]: 0.062 µM (active)
EC50 [17]: 0.032 µM (active)

AC50 [18]: 6.71 µM (active)
IC50 [19]: 22.1 µM (active)
SMILES: Oc1ccc(-c2csc(NCc3ccco3)n2)cc1

SMILES: CCN(c1ccccc1)S(=O)(=O)c1ccc(C(=O)Nc2nnc(-c3ccco3)o2)cc1
EC50 [20]: 1.61 µM (active)
EC50 [21]: 5.63 µM (active)
AC50 [9]: 2.63 µM (active)
AC50 [22]: 32.4 µM (active)

AC50 [23]: 0.0161 µM (active)
SMILES: Cc1ccsc1CN(C)c1ncnc2ccc(-c3ccc(CO)o3)cc12

Source: ChEMBL document CHEMBL1201862, “PubChem BioAssay data set” (2004)
